In patent publication US7772197B2, “1,3,5-triazines for treatment of viral diseases” (1,3,5-Triazines for Treatment of Viral Diseases, priority 2002, dated 2010):
pEC50: −log10 of the molar value. Where two headings read alike, the source gives them in different places.

How the values were obtained:
[1] = system: HIV-1 RTMDR1, with 74V, 41L, 106A and 215Y mutations; test: Sensitivity of NRTI-resistant HIV strain RTMDR1, MT-2 cells; assay type: cell-based; settings: Human immunodeficiency virus 1, MT2
Experimental: (§1) 0.1 ml of a 3×10^5 cells/ml MT-2 cell suspension were seeded in 96-well plates at 3×10^4 cells/well. The compounds to be assayed were diluted in a separate 96-well at ten times (10×) the concentration needed for the screen. 22 μl of the 10× compounds was then added to the wells in triplicate except for six control wells, containing uninfected MT-2 cells alone (3 wells) and untreated HIV-infected MT-2 cells (3 wells). This was followed by the addition of HIV-1 at an MOI of 0.01, except for the three wells serving as the uninfected control. 0.1 ml of cRPMI was added to the uninfected well instead of virus. After the addition of virus, the 96-well plate was centrifuged at 1,200×g for two hours to enhance the adsorption of the virus by the MT-2 cells (see, e.g., O'Doherty, J. Virol. 74:10074-10080 (2000)). After the centrifugation step, the 96-well plate was then incubated in a 37° C. incubator containing 5% CO2 for three days. At the end of this time period the virus and cells were mixed by gentle pipetting followed by a 1 minute spin at 600×g to pellet the cells. The supernatant of each well was then serially diluted 1,000-fold into new 96-well plates to serve as inoculum for the next passage and assayed by ELISA for the amount of p24 produced. The next passage was performed as described above, except that the virus used to infect the cells was derived from the 1,000-fold dilution plate.
(§2) To determine if there is resistance of HIV NRTI resistant strains to mutagenic nucleoside analogues, NRTI resistant strains were grown in the presence of 5-aza-dC to determine whether the EC50 for 5-aza-dC is different from the WT strain (HIV-1 LAI). […] Growth of HIV NRTI resistant strains in the presence of the appropriate concentration of NRTI was used as a positive control.
Three HIV NRTI resistant strains (HIV-1 LAI-M184V, HIV-1 RTMDR1, with 74V, 41L, 106A and 215Y mutations, and HIV-1 RTMC, with 67N, 70R, 215F and 219Q mutations) were used to test the effectiveness of 5-aza-dC. […]

[2] = system: HIV-1 RTMC, with 67N, 70R, 215F and 219Q mutations; test: Sensitivity of NRTI-resistant HIV strain RTMC, MT-2 cells; assay type: cell-based; settings: Human immunodeficiency virus 1, MT2
Experimental: as §1, §2
(§3) Three HIV NRTI resistant strains (HIV-1 LAI-M184V, HIV-1 RTMDR1, with 74V, 41L, 106A and 215Y mutations, and HIV-1 RTMC, with 67N, 70R, 215F and 219Q mutations) were used to test the effectiveness of 5-aza-dC. […] Mutations include: M41L, E44D, A62V, K65R, D67N, T69DN, T69S_SS, K70R, L74V, V75I, F77L, Y115F, F116Y, V118I, Q151M, M184V, L210W, T215F and K219QE.
(§4) The effectiveness of DHAdC was tested against wild-type HIV strains and NRTI resistant HIV strains as described in Example 2. The following strains were tested: HIV-1 LAI, wild-type; HIV-I LAI-M184V-M184V mutation with resistance to lamivudine (3TC); HIV-1 RTMDR1-74V, 41L, 106A and 215Y mutations with resistance to zidovudine, didanosine, nevirapine and other non-nucleoside reverse transcriptase inhibitors; and HIV-1 RTMC-67N, 70R, 215F and 219Q with resistance to zidovudine.

HIV-1 LAI-M184V = test: Sensitivity of NRTI-resistant HIV strain M184V, MT-2 cells; assay type: cell-based; settings: Human immunodeficiency virus 1, MT2
Experimental: as §1, §2, §3, §4

HIV-1 LAI = test: Treatment of HIV-1-infected MT-2 cells with nucleoside analogues, p24 ELISA; assay type: cell-based; settings: for pEC50: Human immunodeficiency virus 1, MT2, wild-type HIV strain LAI, MT-2 cells
Experimental: The strains of HIV-1 used for primary drug screening are HIV-1 LAI or the appropriate strain of NRTI resistant HIV for studies of cross-resistance. Virus was propagated on MT-2 cells at an multiplicity of infection (MOI) of 0.01 to generate virus stocks. Briefly, the MT-2 cells were suspended in RPMI 1640 media supplemented with 10% fetal bovine serum, streptomycin and penicillin (cRPMI) and grown in a 37° C. incubator containing 5% CO2. Serial dilution of the virus and infection of MT-2 cells were followed by an ELISA detecting the capsid protein of HIV-1 (p24) and used to determine the titer of the virus stocks (50% tissue culture infectious dose (TCID50)). The ELISA was performed according to the manufacturer's instructions. The MT-2 cells are also used for visualizing the cytopathic effects of HIV-1 growth (e.g. syncytia formation).
as §1, with “plate. To generate an EC50 value, half-log concentrations of mutagenic nucleoside or nucleotide analogue capable of eradicating virus in a single passage are tested as above to generate a dose-response curve.” for “plate.”

HIV = HIV infected SCID-Hu mice; assay type: in vivo; settings: 30 mg/kg/day
Experimental: After completion of this toxicology experiment, SN1212 was tested in HIV infected SCID-Hu mice. […] The discordance between viral infectivity and conventional surrogate markers of viral load, such as p24 or HIV RNA, is not surprising, as it has also been observed in vitro, and reflects the increased proportion of non-infectious viral particles in the presence of SN1212. It is also interesting to note that, of the treated groups, the immunologic profile of the SN1212 groups most closely resemble that of the uninfected group. This is compatible with the finding that infection with less “fit” viruses provides a relative clinical benefit by preserving cellular immunity.

[3] = system: Measles virus (MV) Nagahata strain; test: Treatment of measles virus-infected CV-1 cells; assay type: cell-based; settings: Measles morbillivirus
Experimental: MV Nagahata strain was used for drug testing. Compared to some laboratory strains, this virus strain replicates lytically in primary human embryonic lung cells and causes extensive cytopathic effect during acute infection. The virus stock was prepared by growing the virus on CV-1 cells at a MOI of 0.01. The titer of the virus stock was determined by plaque formation assay after series dilution.
Virus susceptible cells (CV-1 or BT cells) were seeded in 96-well plates at 2×10^4 cells/well. The virus was inoculated onto the cell monolayers at a MOI of 0.001˜0.002 to keep 30 plaque forming units (pfu) in each well. The inoculum was maintained in 37° C. for about one hour and the supernatant was discarded. Fresh media containing appropriate drug concentration was added in each well. Untreated control was run in parallel. Each drug was tested in triplicate. Three days after infection, cytopathic effect (CPE) was examined in the untreated control wells. […] The plates went through one “freeze-thaw” cycle to release intracellular virus. The virus stock was saved for next round of passage. The virus titer was determined as described above. Virus at a titer of 10^5˜10^6 pfu/ml was produced by this method.

[4] = system: bovine viral diarrhea virus (BVDV) Singer strain; test: Treatment of BVDV-infected BT cells; assay type: cell-based; settings: Bovine viral diarrhea virus isolates and strains
Experimental: The BVDV strain used for drug testing was the Singer strain. This virus also causes a cytopathic effect that is measurable and allows estimation of the level of infection. The visible cytopathology can be used as an endpoint for titrating the virus by 50% tissue culture infectious dose (TCID50). The BVDV was propagated in bovine turbinate (BT cells). The virus TCID50 was determined by counting the cytopathic effect at the endpoint dilution. Briefly, confluent BT cells in 96-well plates were infected with the virus at 8 independent serial 10-fold dilutions. All the plates were incubated for five days at 37° C. in 5% CO2. Each well was scored as positive or negative appearance of visible cytopathic effect. The titers were calculated by the method of Reed and Muench, Am. J. Hyg. 27:493-497 (1938), and the mean titer and standard deviation for each of the 3 replicates for each drug concentration and the positive and negative control were calculated.
Virus susceptible cells (CV-1 or BT cells) were seeded in 96-well plates at 2×10^4 cells/well. The virus was inoculated onto the cell monolayers at a MOI of 0.001˜0.002 to keep 30 plaque forming units (pfu) in each well. The inoculum was maintained in 37° C. for about one hour and the supernatant was discarded. Fresh media containing appropriate drug concentration was added in each well. […] The virus titer was determined as described above. […]

[5] = Cytotoxicity on MT-2 cells (MTT); assay type: cell-based; settings: human
Experimental: For each compound, cytotoxicity was evaluated on MT-2 cells. MT-2 cells were seeded at 3×10^4 cells/well in 96-well plates. […] After 5 days growth in a 37° C. incubator containing 5% CO2, MTT was added to a final concentration of 0.5 mg/ml and then incubated for four hours at 37° C. 10% SDS in 0.02 N HCl was added to lyse the cells overnight at 37° C. The plates were read on a Tecan Genius microplate reader at wavelengths of 570 nm/650 nm. The dose response curve was graphed by comparing the treated cells with the untreated control and the IC50 was determined for each compound.

[6] = cited from earlier work
HIV-1 RT proviral DNA = test: Frequency of mutations to the viral genome induced by 5-aza-dC (sequencing of proviral clones); assay type: cell-based; settings: 30 μM
Experimental: The viral genomic DNA from cells treated with the deoxyribonucleoside analog 5-aza-dC (30 μM) was purified using a Qiagen DNeasy® Kit. 1 μg of genomic DNA was used to amplify a 1 kb region of the HIV-1 RT proviral DNA by PCR. The PCR product was then cloned into a TOPO® cloning vector. A Millipore Miniprep Kit was used to purify plasmid containing proviral inserts. About 45 positive clones were sequenced in both directions by a Beckman Coulter CEQ 8000. The sequencing results were analyzed and assembled using the DNASTAR Stagman program. Each mutated base was counted and the mutation rate was calculated over the total number of sequenced nucleotides. Sixty-one mutations were found in 26,187 bases sequenced in the 5-aza-dC treated cells. Only one mutation in the drug-free control could be confirmed by sequencing in both directions and thus, the mutation rate in the control may be overestimated. Thus, sequencing of a fragment of the nucleic acid encoding HIV reverse transcriptase has confirmed that 5-aza-dC is mutagenic to the viral genome.

`Cc1cn([C@H]2C[C@H](N=[N+]=[N-])[C@@H](CO)O2)c(=O)[nH]c1=O` [AZT, zidovudine] gave a pEC50 [1] of 7.22, a pEC50 [2] of 6.52 and a pEC50 (HIV-1 LAI-M184V) of 8.00. For the same compound, the pEC50 (HIV-1 LAI) was 8.00.

In the case of `Nc1ccn([C@@H]2CS[C@H](CO)O2)c(=O)n1` [Compound 3TC, lamivudine, reference compound], the “CD4+” value (HIV) was 6.9%, the “CD4+ CD8+” value (HIV) was 77% and the “CD8+” value (HIV) was 4.2%. For the same compound, the “HIV-1 RNA” value (HIV; ** p < 0.05) was 2.0** log copies/10^6 cells, the Viral liter (HIV; ** p < 0.05) was 0** viruses/10^6 cells and the p24 (HIV; ** p < 0.05) was 0** pg/10^6 cells. For the same compound, the pEC50 [2] was 6.48, the pEC50 (HIV-1 LAI-M184V) was < 4.49 and the pEC50 (HIV-1 LAI) was 7.35.

With `Nc1ncn([C@@H]2O[C@H](CO)[C@@H](O)[C@H]2O)c(=O)n1` [Compound 5-aza-C, 5-Azacytidine] the pEC50 [3] was 4.82 and the pEC50 [4] was 5.00.

For `Nc1ncn([C@H]2C[C@H](O)[C@@H](CO)O2)c(=O)n1` [Compound 5-aza-dC, 2′-deoxy-5-azacytidine], the pEC50 [1] is listed as 8.00, the IC50 at 5 days [5] is listed as > 10 µM and the “time to 10% degradation” value ([6]; pH 7.0, 25° C.) is listed as 5 h. The “time to 10% degradation” value ([6]; pH 7.0, 50° C.) was 0.5 h, the pEC50 [2] was 8.30 and the mutation rate % (HIV-1 RT proviral DNA; 1 kb region of HIV-1 RT proviral DNA) was 0.223%. For the same compound, the MUTATIONS/NUCLEOTIDE (HIV-1 RT proviral DNA; 1 kb region of HIV-1 RT proviral DNA, 26,187 nucleotides sequenced) was 61/, the “AΠC CΠA mutations” value (HIV-1 RT proviral DNA; number of mutations) was 0 and the “AΠT TΠA mutations” value (HIV-1 RT proviral DNA; number of mutations) was 8. For the same compound, the “CΠG GΠC mutations” value (HIV-1 RT proviral DNA; number of mutations) was 13, the “GΠA AΠG mutations” value (HIV-1 RT proviral DNA; number of mutations) was 24 and the “GΠT TΠG mutations” value (HIV-1 RT proviral DNA; number of mutations) was 10. The “TΠC CΠT mutations” value (HIV-1 RT proviral DNA; number of mutations) was 6, the pEC50 (HIV-1 LAI-M184V) was 8.00 and the pEC50 (HIV-1 LAI) was 8.52. For the same compound, the “eradication of HIV” value (HIV-1 LAI; viral passage in MT-2 cells) was “capable of eradicating HIV in a single passage”.

`CN1CN([C@H]2C[C@H](O)[C@@H](CO)O2)C(=O)N=C1N` [MeDHAdC, 5-methyl-5,6-dihydro-5-azadeoxycytidine] gave a pEC50 (HIV-1 LAI) of 5.00.
